Results taken from patent US12389911B2, “Benzimidazole compound or salt thereof, agricultural and horticultural insecticidal and acaricidal agent containing said compound, and method for using same” (NIHON NOHYAKU CO., LTD., priority 2019, dated 2025).

Tests used:
Format in all cases: in vivo
[1] = test system: Diamondback moth (Plutella xylostella); assay: Insecticidal test on diamondback moth (dip of Chinese cabbage seedlings with laid eggs); details: 500 ppm, seedlings with laid eggs dipped about 30 seconds, 25° C., 6 days after dip treatment
Description: Insecticidal Test on Diamondback Moth (Plutella xylostella)
Adults of diamondback moth were released onto Chinese cabbage seedlings and allowed to lay eggs thereon. At 2 days after the release of the adults, the Chinese cabbage seedlings with laid eggs were dipped for about 30 seconds in agrochemical dispersions diluted to 500 ppm, each of which contained a different benzimidazole compound represented by the general formula (1) of the present invention or salt thereof as an active ingredient. After air-dried, the seedlings were kept in a thermostatic chamber at 25° C. At 6 days after the dip treatment, the number of hatched larvae per plot was counted, the corrected mortality rate was calculated according to the formula shown below, and the insecticidal efficacy was evaluated according to the criteria of Test Example 2. This test was conducted in triplicate using 10 adults of diamondback moth per plot. Corrected mortality rate (%)=(Number of hatched larvae in a non-treatment plot−Number of hatched larvae in a treatment plot)/(Number of hatched larvae in a non-treatment plot)×100 [Expression 3]

[2] = test system: Two-spotted spider mite (Tetranychus urticae); assay: Acaricidal action on two-spotted spider mite (kidney bean leaf disk spray); details: 500 ppm, adult females, 25° C., two days after treatment
Procedure, shortened: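 Kidney bean leaf disks (2 cm) carrying adult female T. urticae were sprayed with compound dispersion at 500 ppm and held at 25 °C. Dead mites counted 2 days later and corrected mortality calculated against untreated plots; 10 adults per plot, in duplicate.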

[3] = test system: Small brown planthopper (Laodelphax striatellus); assay: Insecticidal test on small brown planthopper (rice seedling dip); details: 500 ppm, rice seedlings dipped 30 seconds, ten 3rd-instar larvae, 8 days after inoculation
Description: Insecticidal Test on Small Brown Planthopper (Laodelphax striatellus)
The benzimidazole compounds represented by the general formula (1) of the present invention or salts thereof were separately dispersed in water and diluted to 500 ppm. Rice plant seedlings (variety: Nihonbare) were dipped in the agrochemical dispersions for 30 seconds. After air-dried, each seedling was put into a separate glass test tube and inoculated with ten 3rd-instar larvae of small brown planthopper, and then the glass test tubes were capped with cotton plugs. At 8 days after the inoculation, survival rates were calculated from the numbers of surviving larvae and dead larvae, the corrected mortality rate was calculated according to the formula shown below, and the insecticidal efficacy was evaluated according to the criteria shown below. Corrected mortality rate (%)=(Survival rate in a non-treatment plot−Survival rate in a treatment plot)/(Survival rate in a non-treatment plot)×100 [Expression 2] Criteria: • A: the corrected mortality rate is 100%. • B: the corrected mortality rate is 90 to 99%. • C: the corrected mortality rate is 80 to 89%. • D: the corrected mortality rate is 50 to 79%.

Compound | insecticidal efficacy (corrected mortality rate), activity level [1] | acaricidal efficacy (corrected mortality rate), activity level [2] | insecticidal efficacy (corrected mortality rate), activity level [3]
CCS(=O)(=O)n1c(-n2cnc(CCc3ccc(C(F)(F)F)cc3)c2)nc2ccccc21 [Compound 1-11] | D or higher | D or higher | 
CCS(=O)(=O)n1c(-n2cc(CCc3ccccc3)cn2)nc2ccccc21 [Compound 2-3] | D or higher | D or higher | 
CCS(=O)(=O)n1c(-n2nc(C(F)(F)F)cc2C)nc2ccccc21 [Compound 2-17] |  | D or higher | D or higher
C=Cc1cn(-c2nc3ccccc3n2S(=O)(=O)CC)nc1C(F)(F)F [Compound 2-21] |  | D or higher | D or higher
CCS(=O)(=O)n1c(-n2cc(CCc3ccccc3)c(C(F)(F)F)n2)nc2ccccc21 [Compound 2-23] | D or higher | D or higher | 
CCS(=O)(=O)n1c(-n2cc(C(=O)Oc3c(C)cccc3C)c(C(F)(F)F)n2)nc2ccccc21 [Compound 2-29] |  | D or higher | D or higher
CCS(=O)(=O)n1c(-n2cc(SC(C)C)c(C(F)(F)F)n2)nc2ccccc21 [Compound 2-32] |  | D or higher | D or higher
CCS(=O)(=O)n1c(-n2ccc(OCC(F)(F)C(F)(F)F)n2)nc2ccccc21 [Compound 2-38] | D or higher | D or higher | 
CCc1nn(-c2nc3ccccc3n2S(=O)(=O)CC)cc1C(=O)OC(C)(C)C [Compound 2-49] | D or higher | D or higher | 
